Assay results as given in patent US8481521B2, “Methods of treating cell proliferative disorders” (Rigel Pharmaceuticals, Inc., priority 2005, dated 2013).
≈ marks a conversion by molar mass, not a printed value. Like-named read-outs stand apart in the source and are kept apart here.

Legend:
[1] = in vivo
Protocol: (§1) GLP toxicology studies included negative mutagenicity and clastogenicity studies (Ames, chromosomal aberration, and mouse micronucleus). […] The No Observed Adverse Effect Level (NOAEL) is 10-30 mg/kg/day for rats and 100 mg/kg/day for monkeys.

[2] = test system: Myc-transformed pre-B cells; experiment: Proliferation (DNA content) of Myc-transformed pre-B cells; assay type: cell-based; conditions: 36 hours, 2 μM
Text: FIG. 2A is a FACS profile of pre-B cells that were transduced with Myc expression vectors and cultured in the absence of IL-7 for 1 week.
To determine the effect of Syk inhibitor on proliferation of leukemic cells, several tumorigenic pre-B cell lines that induce leukemia after injection into mice were used. Because tumorigenic cells need the pre-B cell receptor (pre-BCR) for proliferation, and Syk is a critical protein for pre-BCR signaling cascade, it is expected that Syk inhibitors will inhibit proliferation of these tumorigenic pre-B cells. […] Cells were injected into […] mice to examine their ability to proliferate in vivo.

[3] = Pharmacokinetics in NOD-SCID mice after PO VII calcium salt (plasma VI); assay type: in vivo; design: T-max (Compound VI in plasma): unit not given here
Protocol: Initial PK data in NOD-SCID mice was generated in an intial study prior to dosing in this study.
Due to precipitates observed in on-study formulations prepared in the initial study and other studies, additional PK data was obtained using remaining dosing solutions after study termination. NOD-SCID female mice (n=4) were dosed with 40 mg/kg dose solution of VII and plasma obtained at 1 hour post dose.
Table 5A and 5B: PO administration of VII Calcium Salt: Mean Concentration of Compound VI in Plasma (ng/mL).

[4] = test system: AML cells harboring Flt-3 ITD; experiment: Apoptosis of AML cells (Annexin V and PI staining); assay type: cell-based; conditions: 1 uM, 48 h
Protocol: (§2) AML cells or 32D transfectants were treated for 48 h (AML) or 24 h (32D) with 1 uM VI, and the increase in % of apoptotic cells was determined using Annexin V and PI staining.

[5] = GLP mutagenicity and clastogenicity studies (Ames, chromosomal aberration, mouse micronucleus)
Protocol: as §1

[6] = test system: 32D transfected with ITD or point mutated Flt-3; experiment: Apoptosis of 32D transfectants (Annexin V and PI staining); assay type: cell-based; conditions: 1 uM, 24 h
Protocol: as §2

[7] = Solubility of drug and phosphate prodrug; assay type: physicochemical
Text: In contrast, Compound 4 is highly polar at neutral pH. Measured solubility values are consistent with the predicted cLogD values at pH=7.5.

[8] = test system: TEL-Syk-transformed cells; experiment: Proliferation (DNA content) and differentiation of TEL-Syk-transformed pre-B cells; assay type: cell-based
Protocol: Cells were cultured for 3 days in the absence of IL-7 and analyzed for the expression of kappa LC by FACS. Experiments showing the inhibition of proliferation of Syk-transformed cells by a Syk inhibitory compound are described in […]., Abe, A., and Jumaa, H., “The protein tyrosine kinase Syk is involved in malignant transformation and leukemia development,” (manuscript in preparation). The experiments described in the manuscript are briefly summarized below. Aberrant Syk variants resulting from chromosomal translocation Tel-Syk were tested for its ability to transform pre-B cells by retrovirally transducing freshly isolated bone marrow pre-B cells with IRES-GFP vectors expressing Tel-Syk. […] Transformation of the pre B cells by Tel-Syk activity was confirmed by injecting the TEL-SYK transduced cells into RAG/γC-/- mice, which led to animals presenting symptoms of myelodysplastic disease. […] To test whether inhibition of Syk activity in the cells transformed with Tel-Syk block cell proliferation, the effect of Syk kinase inhibitor 2,4-pyrimidinediamine compound IV was tested in vitro by examining the DNA content of treated cells.

[9] = test system: tumorigenic SLP-65−/− pre-B cell lines; experiment: Proliferation (DNA content) of tumorigenic SLP-65-/- pre-B cell lines; assay type: cell-based; conditions: 36 hours, 2 μM
[10] = test system: MV4-11 human acute myeloid leukemia cells; experiment: Subcutaneous MV4-11 tumor growth (initial studies); assay type: in vivo, mice
Text: The Flt-3 ITD mutation has been associated with poor prognosis and reduced remission rates in affected AML patients, making it an attractive target for therapeutic intervention. Studies have shown that mutant Flt-3 ITD receptors dimerize in a Flt-3 ligand-independent manner and auto-phosphorylation of the receptor results in constitutive activation, increased proliferation, and growth factor independence of the mutant cell.

## COc1cc(Nc2ncc(F)c(Nc3ccc4c(n3)NC(=O)C(C)(C)O4)n2)cc(OC)c1OC [Compound III, N4-(2,2-dimethyl-3-oxo-4H-5-pyrido[1,4]oxazin-6-yl)-5-fluoro-N2-(3,4,5-trimethoxyphenyl)-2,4-pyrimidinediamine]
[1]; monkey
  28-day toxicity: hematology, bone marrow cellularity: reversible effect
[1]; rat
  28-day toxicity: hematology, liver transaminase, spleen and thymus size, bone marrow cellularity: reversible effect
[2]
  proliferation of Myc-transformed pre-B cells: block the proliferation
[3]; female mice, 20, 40 or 80 mg/kg doses of VII
  plasma levels of VI by 6 hours post-dose: virtually undetectable
[4]
  induced apoptosis of AML cells harboring Flt-3 ITD: uniquely sensitive
[5]
  mutagenicity and clastogenicity (Ames, chromosomal aberration, mouse micronucleus): negative
[6]
  apoptosis of 32D transfected with ITD or point mutated Flt-3 vs wt Flt-3: undergo more apoptosis
[7]; aqueous buffer, phosphate buffer at pH=7.5, read-out: measured solubility
  solubility: < 1 µg/mL
[7]; water solubility, read-out: Solubility
  solubility: 1 to 2 µg/mL (≈ 2.13 to 4.25 µM)
[8]
  differentiation of TEL-Syk-transformed pre-B cells (kappa light chain expression): induce differentiation
[8]; DNA content, 36 hours, 2 μM
  proliferation of TEL-Syk-transformed pre-B cells: block proliferation
[9]
  proliferation of tumorigenic SLP-65−/− pre-B cell lines: block the proliferation

## N4-(2,2-dimethyl-4-[(dihydrogen phosphonoxy)methyl]-3-oxo-5-pyrido[1,4]oxazin-6-yl)-5-fluoro-N2-(3,4,5-trimethoxyphenyl)-2,4-pyrimidinediamine mono calcium salt [Compound 6]
[10]
  subcutaneous tumor growth: reduced subcutaneous tumor growth
[3]; PO 20 mg/kg, Female
  AUCinf (Compound VI in plasma): 5362 ng·h/mL
  AUClast (Compound VI in plasma): 5351 ng·h/mL
  C-max (Compound VI in plasma): 3717 ng/mL
  T1/2 (Compound VI in plasma): 35.4 min
  T-max (Compound VI in plasma): 0.25
[3]; PO 20 mg/kg, Female, 0.25 hrs
  Mean Concentration of Compound VI in Plasma: 3717 ng/mL
[3]; PO 20 mg/kg, Female, 0.5 hrs
  Mean Concentration of Compound VI in Plasma: 2240 ng/mL
[3]; PO 20 mg/kg, Female, 1 hrs
  Mean Concentration of Compound VI in Plasma: 1737 ng/mL
[3]; PO 20 mg/kg, Female, 2 hrs
  Mean Concentration of Compound VI in Plasma: 1438 ng/mL
[3]; PO 20 mg/kg, Female, 4 hrs
  Mean Concentration of Compound VI in Plasma: 55.0 ng/mL
[3]; PO 20 mg/kg, Female, 6 hrs
  Mean Concentration of Compound VI in Plasma: 13.0 ng/mL
[3]; PO 20 mg/kg, Male
  AUCinf (Compound VI in plasma): 11434 ng·h/mL
  AUClast (Compound VI in plasma): 10261 ng·h/mL
  C-max (Compound VI in plasma): 3377 ng/mL
  T1/2 (Compound VI in plasma): 107 min
  T-max (Compound VI in plasma): 0.50
[3]; PO 20 mg/kg, Male, 0.25 hrs
  Mean Concentration of Compound VI in Plasma: 1872 ng/mL
[3]; PO 20 mg/kg, Male, 0.5 hrs
  Mean Concentration of Compound VI in Plasma: 3377 ng/mL
[3]; PO 20 mg/kg, Male, 1 hrs
  Mean Concentration of Compound VI in Plasma: 3280 ng/mL
[3]; PO 20 mg/kg, Male, 2 hrs
  Mean Concentration of Compound VI in Plasma: 2130 ng/mL
[3]; PO 20 mg/kg, Male, 4 hrs
  Mean Concentration of Compound VI in Plasma: 1209 ng/mL
[3]; PO 20 mg/kg, Male, 6 hrs
  Mean Concentration of Compound VI in Plasma: 454 ng/mL
[3]; PO 40 mg/kg, Female
  AUCinf (Compound VI in plasma): 11625 ng·h/mL
  AUClast (Compound VI in plasma): 11498 ng·h/mL
  C-max (Compound VI in plasma): 5497 ng/mL
  T1/2 (Compound VI in plasma): 50.4 min
  T-max (Compound VI in plasma): 1.00
[3]; PO 40 mg/kg, Female, 0.25 hrs
  Mean Concentration of Compound VI in Plasma: 5140 ng/mL
[3]; PO 40 mg/kg, Female, 0.5 hrs
  Mean Concentration of Compound VI in Plasma: 3597 ng/mL
[3]; PO 40 mg/kg, Female, 1 hrs
  Mean Concentration of Compound VI in Plasma: 5497 ng/mL
[3]; PO 40 mg/kg, Female, 2 hrs
  Mean Concentration of Compound VI in Plasma: 2823 ng/mL
[3]; PO 40 mg/kg, Female, 4 hrs
  Mean Concentration of Compound VI in Plasma: 201 ng/mL
[3]; PO 40 mg/kg, Female, 6 hrs
  Mean Concentration of Compound VI in Plasma: 105 ng/mL
[3]; PO 40 mg/kg, Male
  AUCinf (Compound VI in plasma): 27170 ng·h/mL
  AUClast (Compound VI in plasma): 20831 ng·h/mL
  C-max (Compound VI in plasma): 6370 ng/mL
  T1/2 (Compound VI in plasma): 138 min
  T-max (Compound VI in plasma): 2.00
[3]; PO 40 mg/kg, Male, 0.25 hrs
  Mean Concentration of Compound VI in Plasma: 3587 ng/mL
[3]; PO 40 mg/kg, Male, 0.5 hrs
  Mean Concentration of Compound VI in Plasma: 2860 ng/mL
[3]; PO 40 mg/kg, Male, 1 hrs
  Mean Concentration of Compound VI in Plasma: 5250 ng/mL
[3]; PO 40 mg/kg, Male, 2 hrs
  Mean Concentration of Compound VI in Plasma: 6370 ng/mL
[3]; PO 40 mg/kg, Male, 4 hrs
  Mean Concentration of Compound VI in Plasma: 1730 ng/mL
[3]; PO 40 mg/kg, Male, 6 hrs
  Mean Concentration of Compound VI in Plasma: 1909 ng/mL
[3]; PO 80 mg/kg, Female
  AUCinf (Compound VI in plasma): 27662 ng·h/mL
  AUClast (Compound VI in plasma): 27013 ng·h/mL
  C-max (Compound VI in plasma): 8193 ng/mL
  T1/2 (Compound VI in plasma): 58.2 min
  T-max (Compound VI in plasma): 2.00
[3]; PO 80 mg/kg, Female, 0.25 hrs
  Mean Concentration of Compound VI in Plasma: 3847 ng/mL
[3]; PO 80 mg/kg, Female, 0.5 hrs
  Mean Concentration of Compound VI in Plasma: 7433 ng/mL
[3]; PO 80 mg/kg, Female, 1 hrs
  Mean Concentration of Compound VI in Plasma: 7267 ng/mL
[3]; PO 80 mg/kg, Female, 2 hrs
  Mean Concentration of Compound VI in Plasma: 8193 ng/mL
[3]; PO 80 mg/kg, Female, 4 hrs
  Mean Concentration of Compound VI in Plasma: 2529 ng/mL
[3]; PO 80 mg/kg, Female, 6 hrs
  Mean Concentration of Compound VI in Plasma: 465 ng/mL
